ChEMBL document CHEMBL4622851, “Cytotoxicity of 4-substituted quinoline derivatives: Anticancer and antileishmanial potential” (Bioorg Med Chem, 2020)
Active and inactive are the calls of the source. The rule behind the calls is not given here.

Legend:
[1] = system: SK-MEL-147; experiment: Cytotoxicity against human SK-MEL-147 cells assessed as reduction in cell viability at 50 and 100 uM after 24 hrs by MTT assay; assay type: functional, cell-based
[2] = system: Jurkat; experiment: Cytotoxicity against human Jurkat cells assessed as reduction in cell viability at 50 and 100 uM after 24 hrs by MTT assay; assay type: functional, cell-based
[3] = system: SK-MEL-147; experiment: Cytotoxicity against human SK-MEL-147 cells assessed as reduction in cell viability after 24 hrs by MTT assay; assay type: functional, cell-based; conditions: SK-MEL-147, 24 h
[4] = system: Jurkat; experiment: Cytotoxicity against human Jurkat cells assessed as reduction in cell viability after 24 hrs by MTT assay; assay type: functional, cell-based
[5] = biological target: Cysteine proteinase B (Leishmania mexicana, UniProt P36400); experiment: Inhibition of Leishmania mexicana rCPB2.8 using Z-FR-AMC as substrate by spectrofluorometric analysis
Sequence of Cysteine proteinase B (P36400 whole entry): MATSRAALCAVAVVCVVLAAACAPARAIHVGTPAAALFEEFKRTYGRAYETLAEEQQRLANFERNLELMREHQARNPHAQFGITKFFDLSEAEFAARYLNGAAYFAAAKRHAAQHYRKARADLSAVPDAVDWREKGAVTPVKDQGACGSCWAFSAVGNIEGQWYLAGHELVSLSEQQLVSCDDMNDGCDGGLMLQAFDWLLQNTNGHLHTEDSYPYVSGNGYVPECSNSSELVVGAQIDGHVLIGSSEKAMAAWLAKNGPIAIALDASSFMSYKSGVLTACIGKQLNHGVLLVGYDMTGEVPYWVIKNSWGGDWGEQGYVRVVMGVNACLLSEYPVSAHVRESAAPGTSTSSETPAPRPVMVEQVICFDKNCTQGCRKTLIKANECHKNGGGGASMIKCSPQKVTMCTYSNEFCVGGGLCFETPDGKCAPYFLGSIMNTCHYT

[6] = Inhibition of Leishmania mexicana rCPB3.0 using Z-FR-AMC as substrate by spectrofluorometric analysis
[7] = Inhibition of Leishmania mexicana rCPB3.0 H84Y mutant using Z-FR-AMC as substrate by spectrofluorometric analysis
[8] = system: SK-MEL-147; experiment: Cytotoxicity against human SK-MEL-147 cells assessed as reduction in cell viability at EC50 concentration preincubated for 1 hr in presence of GSH measured after 24 hrs by MTT assay; assay type: functional, cell-based
[9] = system: SK-MEL-147; experiment: Induction of apoptosis in human SK-MEL-147 cells assessed as early apoptotic cells at 20 uM after 24 hrs by Annexin V-FITC/propidium iodide staining based flow cytometry; assay type: functional, cell-based
[10] = system: SK-MEL-147; experiment: Induction of apoptosis in human SK-MEL-147 cells assessed as late apoptotic cells at 20 uM after 24 hrs by Annexin V-FITC/propidium iodide staining based flow cytometry; assay type: functional, cell-based
[11] = system: SK-MEL-147; experiment: Induction of apoptosis in human SK-MEL-147 cells assessed as necrotic cells at 20 uM after 24 hrs by Annexin V-FITC/propidium iodide staining based flow cytometry; assay type: functional, cell-based
[12] = system: SK-MEL-147; experiment: Induction of apoptosis in human SK-MEL-147 cells assessed as mitochondrial membrane potential dissipation after 24 hrs by TMRM staining based fluorescence microscopic method; assay type: functional, cell-based
[13] = system: SK-MEL-147; experiment: Induction of apoptosis in human SK-MEL-147 cells assessed as increase in reactive oxygen species generation by CM-H2DCFDA staining based flow cytometric analysis; assay type: functional, cell-based
[14] = system: SK-MEL-147; experiment: Induction of apoptosis in human SK-MEL-147 cells assessed mitochondrial permeabilization after 24 hrs by mitotracker green staining based microscopic analysis; assay type: functional, cell-based
[15] = system: SK-MEL-147; experiment: Cytotoxicity against human SK-MEL-147 cells assessed as reduction in cell viability at EC50 concentration preincubated for 1 hr in presence of DTT measured after 24 hrs by MTT assay; assay type: functional, cell-based
[16] = system: SK-MEL-147; experiment: Cytotoxicity against human SK-MEL-147 cells assessed as reduction in cell viability at EC50 concentration preincubated for 1 hr in presence of N-acetyl cysteine measured after 24 hrs by MTT assay; assay type: functional, cell-based
[17] = system: SK-MEL; experiment: Cytotoxicity against human SK-MEL-147 cells assessed as reduction in cell viability at EC50 concentration preincubated for 1 hr in presence of EGTA measured after 24 hrs by MTT assay; assay type: functional, cell-based
[18] = system: SK-MEL; experiment: Cytotoxicity against human SK-MEL-147 cells assessed as reduction in cell viability at EC50 concentration preincubated for 1 hr in presence of BAPTA measured after 24 hrs by MTT assay; assay type: functional, cell-based
[19] = system: SK-MEL-147; experiment: Cytotoxicity against human SK-MEL-147 cells assessed as reduction in cell viability at EC50 concentration preincubated for 1 hr in presence of Boc-D-FMK measured after 24 hrs by MTT assay; assay type: functional, cell-based
[20] = system: SK-MEL-147; experiment: Cytotoxicity against human SK-MEL-147 cells assessed as reduction in cell viability at EC50 concentration preincubated for 1 hr in presence of E-64 measured after 24 hrs by MTT assay; assay type: functional, cell-based
[21] = species on record: Rattus norvegicus; experiment: Induction of mitochondrial permeabilization in rat liver mitochondria assessed as mitochondrial transmembrane potential dissipation by rhodamine-123 dye based spectrofluorometer analysis; assay type: functional
[22] = species on record: Rattus norvegicus; experiment: Induction of mitochondrial permeabilization in rat liver mitochondria assessed as calcium efflux by calcium green based spectrofluorometer analysis; assay type: functional
[23] = species on record: Rattus norvegicus; experiment: Induction of mitochondrial permeabilization in rat liver mitochondria assessed as mitochondrial transmembrane potential dissipation in presence of DTT by rhodamine-123 dye based spectrofluorometer analysis; assay type: functional
[24] = species on record: Rattus norvegicus; experiment: Induction of mitochondrial permeabilization in rat liver mitochondria assessed as mitochondrial transmembrane potential dissipation in presence of CsA by rhodamine-123 dye based spectrofluorometer analysis; assay type: functional
[25] = species on record: Rattus norvegicus; experiment: Induction of mitochondrial permeabilization in rat liver mitochondria assessed as mitochondrial transmembrane potential dissipation in presence of ADP by rhodamine-123 dye based spectrofluorometer analysis; assay type: functional
[26] = species on record: Rattus norvegicus; experiment: Induction of mitochondrial permeabilization in rat liver mitochondria assessed as calcium efflux in presence of DTT by calcium green based spectrofluorometer analysis; assay type: functional
[27] = species on record: Rattus norvegicus; experiment: Induction of mitochondrial permeabilization in rat liver mitochondria assessed as calcium efflux in presence of CsA by calcium green based spectrofluorometer analysis; assay type: functional
[28] = species on record: Rattus norvegicus; experiment: Induction of mitochondrial permeabilization in rat liver mitochondria assessed as calcium efflux in presence of ADP by calcium green based spectrofluorometer analysis; assay type: functional
[29] = system: SK-MEL-147; experiment: Induction of apoptosis in human SK-MEL-147 cells assessed as increase in BAX expression at 20 uM after 24 hrs by western blotting analysis; assay type: functional, cell-based
[30] = system: SK-MEL-147; experiment: Induction of apoptosis in human SK-MEL-147 cells assessed as effect on BCL-2 protein expression at 20 uM after 24 hrs by western blotting analysis; assay type: functional, cell-based
[31] = system: SK-MEL-147; experiment: Cytotoxicity against human SK-MEL-147 cells assessed as reduction in cell viability in presence of BCL2 inhibitor venetoclax; assay type: functional, cell-based
[32] = biological target: Cathepsin B (Homo sapiens, UniProt P07858); experiment: Inhibition of cathepsin B (unknown origin) using Z-FR-AMC as substrate by spectrofluorometric analysis
[33] = biological target: Procathepsin L (Homo sapiens, UniProt P07711); experiment: Inhibition of cathepsin L (unknown origin) using Z-FR-AMC as substrate by spectrofluorometric analysis
Sequence of Procathepsin L (P07711 whole entry): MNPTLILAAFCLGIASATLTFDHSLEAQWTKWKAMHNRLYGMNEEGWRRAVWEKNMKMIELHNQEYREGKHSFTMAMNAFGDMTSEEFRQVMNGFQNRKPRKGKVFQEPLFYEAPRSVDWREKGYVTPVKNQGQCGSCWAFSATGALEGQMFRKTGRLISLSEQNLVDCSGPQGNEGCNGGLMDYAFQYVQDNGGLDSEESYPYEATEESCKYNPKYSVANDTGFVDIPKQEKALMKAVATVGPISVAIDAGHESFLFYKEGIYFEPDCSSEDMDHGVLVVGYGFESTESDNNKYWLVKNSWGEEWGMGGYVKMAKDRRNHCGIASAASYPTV

## CCOC(=O)c1cc([Se]c2ccccc2)c2ccccc2n1
[1]
  Activity: Active
[2]
  Activity: Active
[3]
  EC50: 86.3 µM
[4]
  EC50: 98.2 µM
[5]
  IC50: 54 µM
[6]
  IC50: 57.5 µM
[7]
  IC50: 25.3 µM

## CCOC(=O)c1cc([Te]c2ccccc2)c2cc(OC)ccc2n1
[1]
  Activity: Active
[2]
  Activity: Active
[3]
  EC50: 128 µM
[4]
  EC50: 77.4 µM

## CCOC(=O)c1cc([Se]c2ccc3ccccc3c2)c2cc(OC)ccc2n1
[1]
  Activity: Active
[2]
  Activity: Active
[3]
  EC50: 32.2 µM
[4]
  EC50: 50.7 µM

## COc1ccc2nc(-c3cccs3)cc([Se]c3ccccc3)c2c1
[1]
  Activity: Active
[2]
  Activity: Active
[3]
  EC50: > 150 µM
[4]
  EC50: 99.8 µM

## CCOC(=O)c1cc([Se]Cc2ccccc2)c2cc(Cl)ccc2n1
[1]
  Activity: Active
[2]
  Activity: Active
[3]
  EC50: 84.5 µM
[4]
  EC50: 88.5 µM

## CCOC(=O)c1cc([Se]c2ccccc2)c2cc(C)ccc2n1
[8]
  Activity: inactive
[1]
  Activity: Active
[2]
  Activity: Active
[3]
  EC50: 12 µM
[4]
  EC50: 15.3 µM
[9]
  Activity: Active
[10]
  Activity: Active
[11]
  Activity: Active
[12]
  Activity: Active
[13]
  Activity: Active
[14]
  Activity: Active
[15]
  Activity: inactive
[16]
  Activity: inactive
[17]
  Activity: inactive
[18]
  Activity: inactive
[19]
  Activity: Active
[20]
  Activity: Active
[21]
  Activity: Active
[22]
  Activity: Active
[23]
  Activity: inactive
[24]
  Activity: inactive
[25]
  Activity: inactive
[26]
  Activity: inactive
[27]
  Activity: inactive
[28]
  Activity: inactive
[29]
  Activity: Active
[30]
  Activity: inactive
[31]
  Activity: Active
[32]
  IC50: Not Active
[33]
  IC50: Not Active

## CCOC(=O)c1cc(C#Cc2ccc(N)cc2)c2cc(OC)ccc2n1
[1]
  Activity: Active
[2]
  Activity: Active
[3]
  EC50: 8.8 µM
[4]
  EC50: 61 µM

## CCOC(=O)c1cc([Se]Cc2ccccc2)c2cc(OC)ccc2n1
[1]
  Activity: Active
[2]
  Activity: Active
[3]
  EC50: 40.7 µM
[4]
  EC50: 20.8 µM

## CCOC(=O)c1cc([Se]c2ccc3cc(OC)ccc3c2)c2cc(OC)ccc2n1
[1]
  Activity: Active
[2]
  Activity: Active
[3]
  EC50: 30.8 µM
[4]
  EC50: 31.3 µM
[7]
  IC50: 8.44 µM

## CCOC(=O)c1cc(C#Cc2ccccc2[N+](=O)[O-])c2cc(OC)ccc2n1
[1]
  Activity: Active
[2]
  Activity: Active
[3]
  EC50: > 150 µM
[4]
  EC50: 54.7 µM

## CCOC(=O)c1cc(C#CCCO)c2cc(OC)ccc2n1
[1]
  Activity: Active
[2]
  Activity: Active
[3]
  EC50: > 150 µM
[4]
  EC50: 123 µM

## CCCCC#Cc1cc(C(=O)OCC)nc2ccc(OC)cc12
[8]
  Activity: Active
[1]
  Activity: Active
[2]
  Activity: Active
[3]
  EC50: 7.2 µM
[4]
  EC50: 15.9 µM
[9]
  Activity: Active
[10]
  Activity: Active
[11]
  Activity: Active
[12]
  Activity: Active
[13]
  Activity: Active
[14]
  Activity: Active
[15]
  Activity: Active
[16]
  Activity: Active
[17]
  Activity: Active
[18]
  Activity: Active
[19]
  Activity: inactive
[20]
  Activity: inactive
[21]
  Activity: Active
[22]
  Activity: Active
[23]
  Activity: Active
[24]
  Activity: Active
[25]
  Activity: Active
[26]
  Activity: Active
[27]
  Activity: Active
[28]
  Activity: inactive
[29]
  Activity: Active
[30]
  Activity: inactive
[31]
  Activity: Active
[32]; read-out: IC50
  IC50: 6.86 µM
[33]; read-out: IC50
  IC50: 3.69 µM
